Source: the supplement of paper PMC10307832

How the values were obtained:
Experiment in all cases: relative viability (nuclei count vs DMSO), 5 days (fraction); higher = more cells survive
BEN = test system: BEN
Outline: (§1)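 Cells from lung cancer lines were seeded into 1536-well plates and, one day later, dosed by pin tool. Treatments were either a single drug or a fixed dose of an anchor drug with five library-drug doses (not always all listed) in √10 steps. After 5 days, nuclei were stained in a one-step fixation (final 0.05% Triton X-100, 1% formaldehyde, 1 ug/ml Hoechst) and counted on 4× images, and relative viability is the treated-to-vehicle nuclei ratio, as the median of duplicate plates.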

ChaGo-K-1 = test system: ChaGo-K-1
Outline: as §1

EKVX = test system: EKVX
Outline: as §1

HCC-827 = test system: HCC-827
Outline: as §1

HOP-62 = test system: HOP-62
Outline: as §1

LCLC-103H = test system: LCLC-103H
Outline: as §1

LK-2 = test system: LK-2
Outline: as §1

LOU-NH91 = test system: LOU-NH91
Outline: as §1

LXF-289 = test system: LXF-289
Outline: as §1

NCI-H1355 = test system: NCI-H1355
Outline: as §1

NCI-H1437 = test system: NCI-H1437
Outline: as §1

NCI-H1666 = test system: NCI-H1666
Outline: as §1

NCI-H1944 = test system: NCI-H1944
Outline: as §1

NCI-H1993 = test system: NCI-H1993
Outline: as §1

NCI-H2126 = test system: NCI-H2126
Outline: as §1

NCI-H2170 = test system: NCI-H2170
Outline: as §1

NCI-H441 = test system: NCI-H441
Outline: as §1

NCI-H647 = test system: NCI-H647
Outline: as §1

NCI-H727 = test system: NCI-H727
Outline: as §1

PC-14 = test system: PC-14
Outline: as §1

RERF-LC-KJ = test system: RERF-LC-KJ
Outline: as §1

Question: What does the source list for `CN1CCN(CCOc2cc(OC3CCOCC3)c3c(Nc4c(Cl)ccc5c4OCO5)ncnc3c2)CC1` [Saracatinib] + NC(=O)Nc1cc(-c2cccc(F)c2)sc1C(=O)N[C@H]1CCCNC1 [AZD7762] (partner 0.2 µM)?
Answer: relative viability (BEN; first compound 0.02 µM): 0.906; relative viability (BEN; first compound 0.2 µM): 0.511; relative viability (BEN; first compound 0.6325 µM): 0.847; relative viability (BEN; first compound 2 µM): 0.713; relative viability (ChaGo-K-1; first compound 0.02 µM): 0.895; relative viability (ChaGo-K-1; first compound 0.2 µM): 0.614; relative viability (ChaGo-K-1; first compound 0.6325 µM): 0.967; relative viability (ChaGo-K-1; first compound 2 µM): 0.924; relative viability (EKVX; first compound 0.02 µM): 0.841; relative viability (EKVX; first compound 0.6325 µM): 0.659; relative viability (EKVX; first compound 2 µM): 0.29; relative viability (HCC-827; first compound 0.02 µM): 0.223; relative viability (HCC-827; first compound 0.2 µM): 0.119; relative viability (HCC-827; first compound 0.6325 µM): 0.145; relative viability (HCC-827; first compound 2 µM): 0.11; relative viability (HOP-62; first compound 0.02 µM): 0.945; relative viability (HOP-62; first compound 0.2 µM): 0.614; relative viability (HOP-62; first compound 0.6325 µM): 0.707; relative viability (HOP-62; first compound 2 µM): 0.905; relative viability (LCLC-103H; first compound 0.02 µM): 0.855; relative viability (LCLC-103H; first compound 0.2 µM): 0.711; relative viability (LCLC-103H; first compound 0.6325 µM): 0.821; relative viability (LCLC-103H; first compound 2 µM): 0.772; relative viability (LK-2; first compound 0.02 µM): 0.391; relative viability (LK-2; first compound 0.2 µM): 0.219; relative viability (LK-2; first compound 0.6325 µM): 0.262; relative viability (LK-2; first compound 2 µM): 0.133; relative viability (LOU-NH91; first compound 0.02 µM): 0.785; relative viability (LOU-NH91; first compound 0.2 µM): 0.722; relative viability (LOU-NH91; first compound 0.6325 µM): 0.745; relative viability (LOU-NH91; first compound 2 µM): 0.598; relative viability (LXF-289; first compound 0.02 µM): 1.12; relative viability (LXF-289; first compound 0.2 µM): 1.09; relative viability (LXF-289; first compound 0.6325 µM): 1.12; relative viability (LXF-289; first compound 2 µM): 1.1; relative viability (NCI-H1355; first compound 0.02 µM): 0.769; relative viability (NCI-H1355; first compound 0.2 µM): 0.564; relative viability (NCI-H1355; first compound 0.6325 µM): 0.719; relative viability (NCI-H1355; first compound 2 µM): 0.715; relative viability (NCI-H1437; first compound 0.02 µM): 1.12; relative viability (NCI-H1437; first compound 0.2 µM): 1.17; relative viability (NCI-H1437; first compound 0.6325 µM): 1.17; relative viability (NCI-H1437; first compound 2 µM): 1.07; relative viability (NCI-H1666; first compound 0.02 µM): 0.956; relative viability (NCI-H1666; first compound 0.2 µM): 0.821; relative viability (NCI-H1666; first compound 0.6325 µM): 1.07; relative viability (NCI-H1666; first compound 2 µM): 0.847; relative viability (NCI-H1944; first compound 0.02 µM): 0.476; relative viability (NCI-H1944; first compound 0.2 µM): 0.413; relative viability (NCI-H1944; first compound 0.6325 µM): 0.528; relative viability (NCI-H1944; first compound 2 µM): 0.404; relative viability (NCI-H1993; first compound 0.02 µM): 0.836; relative viability (NCI-H1993; first compound 0.2 µM): 0.719; relative viability (NCI-H1993; first compound 0.6325 µM): 0.694; relative viability (NCI-H1993; first compound 2 µM): 0.581; relative viability (NCI-H2126; first compound 0.02 µM): 1; relative viability (NCI-H2126; first compound 0.2 µM): 0.883; relative viability (NCI-H2126; first compound 0.6325 µM): 1.01; relative viability (NCI-H2126; first compound 2 µM): 0.993; relative viability (NCI-H2170; first compound 0.02 µM): 0.867; relative viability (NCI-H2170; first compound 0.2 µM): 0.803; relative viability (NCI-H2170; first compound 0.6325 µM): 0.872; relative viability (NCI-H2170; first compound 2 µM): 0.506; relative viability (NCI-H441; first compound 0.02 µM): 1.06; relative viability (NCI-H441; first compound 0.2 µM): 1.16; relative viability (NCI-H441; first compound 0.6325 µM): 1.2; relative viability (NCI-H441; first compound 2 µM): 1.03; relative viability (NCI-H647; first compound 0.02 µM): 0.564; relative viability (NCI-H647; first compound 0.2 µM): 0.509; relative viability (NCI-H647; first compound 0.6325 µM): 0.507; relative viability (NCI-H647; first compound 2 µM): 0.354; relative viability (NCI-H727; first compound 0.02 µM): 0.683; relative viability (NCI-H727; first compound 0.2 µM): 0.522; relative viability (NCI-H727; first compound 0.6325 µM): 0.616; relative viability (NCI-H727; first compound 2 µM): 0.401; relative viability (PC-14; first compound 0.02 µM): 0.381; relative viability (PC-14; first compound 0.2 µM): 0.286; relative viability (PC-14; first compound 0.6325 µM): 0.246; relative viability (PC-14; first compound 2 µM): 0.203; relative viability (RERF-LC-KJ; first compound 0.02 µM): 1.13; relative viability (RERF-LC-KJ; first compound 0.2 µM): 0.971; relative viability (RERF-LC-KJ; first compound 2 µM): 1
